Laboratory results from patent publication US12336981B2, “Compounds and compositions for the inhibition of NAMPT” (Valo Health, Inc., priority 2010, dated 2025).
Read-outs that look alike come from different tables or passages of the source.

How the values were obtained:
[1] = molecular target: T1, NAMPT (Homo sapiens, UniProt P43490); assay: Biochemical inhibition assay: NAMPT enzymatic reaction, NMN quantified by mass spectrometry; conditions: read-out: Biochem IC50
T1 construct: His tag; host or cells: E. coli
T1 sequence (P43490 whole entry): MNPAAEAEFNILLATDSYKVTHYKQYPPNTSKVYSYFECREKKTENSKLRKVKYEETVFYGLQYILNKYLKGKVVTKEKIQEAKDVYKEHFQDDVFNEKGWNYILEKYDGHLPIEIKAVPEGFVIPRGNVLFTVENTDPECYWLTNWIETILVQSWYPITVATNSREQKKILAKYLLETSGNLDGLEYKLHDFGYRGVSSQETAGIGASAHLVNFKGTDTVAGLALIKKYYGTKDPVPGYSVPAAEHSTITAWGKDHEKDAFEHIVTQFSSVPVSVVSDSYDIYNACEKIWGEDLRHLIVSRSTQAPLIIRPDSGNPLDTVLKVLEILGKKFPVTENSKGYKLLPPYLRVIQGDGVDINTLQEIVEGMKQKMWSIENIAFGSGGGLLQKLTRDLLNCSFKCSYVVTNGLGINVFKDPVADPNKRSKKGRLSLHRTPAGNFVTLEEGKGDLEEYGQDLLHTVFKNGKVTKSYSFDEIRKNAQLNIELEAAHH
Summary of the method: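 Inhibition of E. coli-expressed His-tagged human NAMPT, measured as NMN formation by mass spectrometry after a 30 min room-temperature reaction containing 1 μM NAM, 100 μM PRPP and 2.5 mM ATP.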

[2] = test system: A2780 cells; assay: In-vitro cell proliferation assay (SRB), A2780 cells; assay type: cell-based; conditions: Homo sapiens, A2780, 72 h, A2780 cells, 72 hours, read-out: A2780 IC50
Summary of the method: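 Proliferation is assessed by sulforhodamine B staining following a 72-hour incubation with compound dilutions containing 0.1% DMSO.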

SMILES | IC50 ([1]; NAMPT enzymatic reaction) | IC50 ([2]; SRB assay) | IC50 ([1]; NAMPT enzymatic assay) | IC50 ([2]; SRB)
O=C(NCc1ccc(S(=O)(=O)N2CCCCC2)cc1)c1cn2[nH]ccc2n1 [N-{[4-(piperidine-1-sulfonyl)phenyl]methyl}-1H-imidazo[1,2-b]pyrazole-5-carboxamide] | 0.8 nM | 11 nM | – | –
O=C(NCc1ccc(S(=O)(=O)c2cnc(N3CCCC3)s2)cc1)c1cnc2[nH]ncc2c1 [N-({4-[2-(pyrrolidin-1-yl)-1,3-thiazole-5-sulfonyl]phenyl}methyl)-1H-pyrazolo[3,4-b]pyridine-5-carboxamide] | – | – | 2.8 nM | 0.9 nM
CCOc1cc(S(=O)(=O)c2ccc(CNC(=O)c3cnc4nccn4c3)cc2)ccc1F [N-({4-[(3-ethoxy-4-fluorobenzene)sulfonyl]phenyl}methyl)imidazo[1,2-a]pyrimidine-6-carboxamide] | 0.3 nM | – | – | 7.8 nM
CN(C)C(=O)c1ccccc1S(=O)(=O)c1ccc(CNC(=O)c2ccc3nccn3c2)cc1 [N-[(4-{[2-(dimethylcarbamoyl)benzene]sulfonyl}phenyl)methyl]imidazo[1,2-a]pyridine-6-carboxamide] | – | – | > 167 nM | 100 to 1000 nM
CN(C)C(=O)c1ccccc1S(=O)(=O)c1ccc(CNC(=O)c2cc3ccncc3s2)cc1 | – | – | 100 to 1000 nM | 100 to 1000 nM
CCCCOc1cc(F)ccc1S(=O)(=O)c1ccc(CNC(=O)c2cnc3nccn3c2)cc1 | 7.3 nM | – | – | 73.8 nM
CCOc1cccc(F)c1S(=O)(=O)c1ccc(CNC(=O)c2cc3ccncc3o2)cc1 [N-({4-[(2-ethoxy-6-fluorobenzene)sulfonyl]phenyl}methyl)furo[2,3-c]pyridine-2-carboxamide] | 17 nM | – | – | 28.3 nM
N#Cc1ccccc1S(=O)(=O)c1ccc(CNC(=O)c2cnc3[nH]ncc3c2)cc1 [N-({4-[(2-cyanobenzene)sulfonyl]phenyl}methyl)-1H-pyrazolo[3,4-b]pyridine-5-carboxamide] | 131 nM | – | – | 100 to 1000 nM
O=C(NCc1ccc(S(=O)(=O)c2cccc(Cl)c2)cc1)c1cnc2nccn2c1 | 1.3 nM | – | – | 1.2 nM
O=C(NCc1ccc(S(=O)(=O)c2ccccc2)cc1)c1ccc2ncccc2c1 [N-{[4-(benzenesulfonyl)phenyl]methyl}quinoline-6-carboxamide] | – | – | 108 nM | > 10000 nM
COc1cccc(S(=O)(=O)c2ccc(CNC(=O)c3cnc4nccn4c3)cc2)n1 [N-{[4-(6-methoxypyridine-2-sulfonyl)phenyl]methyl}imidazo[1,2-a]pyrimidine-6-carboxamide] | – | – | 2.2 nM | 5.9 nM
CCCOc1ccc(Cl)cc1S(=O)(=O)c1ccc(CNC(=O)c2cc3ccncc3o2)cc1 | 8 nM | – | – | 9.3 nM
COc1cc(C(F)(F)F)ccc1S(=O)(=O)c1ccc(CNC(=O)c2cc3ccncc3s2)cc1 [N-[(4-{[2-methoxy-4-(trifluoromethyl)benzene]sulfonyl}phenyl)methyl]thieno[2,3-c]pyridine-2-carboxamide] | 9 nM | 7.5 nM | 10 nM | 2.2 nM
O=C(NCc1ccc(S(=O)(=O)c2cccnc2C(F)(F)F)cc1)c1cc2ccncc2o1 [N-({4-[2-(trifluoromethyl)pyridine-3-sulfonyl]phenyl}methyl)furo[2,3-c]pyridine-2-carboxamide] | – | – | 30.4 nM | 27.9 nM
O=C(NCc1ccc(S(=O)(=O)c2nccs2)cc1)c1cc2ccncc2o1 [N-{[4-(1,3-thiazole-2-sulfonyl)phenyl]methyl}furo[2,3-c]pyridine-2-carboxamide] | – | – | 19.8 nM | 78.6 nM
COc1cc(-n2cccn2)ccc1S(=O)(=O)c1ccc(CNC(=O)c2cc3ccncc3o2)cc1 | – | – | 6.5 nM | 6 nM
Cc1c(Cl)cccc1S(=O)(=O)c1ccc(CNC(=O)c2ccc3nccn3c2)cc1 | 25.7 nM | – | – | 5 nM
CSc1ccc(S(=O)(=O)c2ccc(CNC(=O)c3cc4ccncc4o3)cc2)cc1F | – | – | 12.3 nM | 11.2 nM
O=C(NCc1ccc(S(=O)(=O)c2csc(-c3cccc(F)c3)n2)cc1)c1ccc2nccn2c1 [N-({4-[2-(3-fluorophenyl)-1,3-thiazole-4-sulfonyl]phenyl}methyl)imidazo[1,2-a]pyridine-6-carboxamide] | – | – | 22.9 nM | 12.8 nM
Cn1ncc2c(S(=O)(=O)c3ccc(CNC(=O)c4ccc5nccn5c4)cc3)cccc21 [N-{[4-(1-methyl-1H-indazole-4-sulfonyl)phenyl]methyl}imidazo[1,2-a]pyridine-6-carboxamide] | – | – | 12.5 nM | 3 nM
CCCCOc1ccc(S(=O)(=O)c2ccc(CNC(=O)c3cc4cnccc4[nH]3)cc2)c(C)c1 | 80 nM | – | – | 62.5 nM
O=C(NCc1ccc(S(=O)(=O)c2cccc3c2OCC3)cc1)c1ccc2nccn2c1 [N-{[4-(2,3-dihydro-1-benzofuran-7-sulfonyl)phenyl]methyl}imidazo[1,2-a]pyridine-6-carboxamide] | – | – | 12.5 nM | 6.4 nM

SMILES | IC50 ([1]; NAMPT enzymatic reaction) | IC50 ([2]; SRB assay) | IC50 ([1]; NAMPT enzymatic assay) | IC50 ([2]; SRB)
Cn1ncc2cccc(S(=O)(=O)c3ccc(CNC(=O)c4cnc5nccn5c4)cc3)c21 [N-{[4-(1-methyl-1H-indazole-7-sulfonyl)phenyl]methyl}imidazo[1,2-a]pyrimidine-6-carboxamide] | – | – | 23.3 nM | 100 to 1000 nM
COc1cc(F)c(F)cc1S(=O)(=O)c1ccc(CNC(=O)c2cc3cnccc3[nH]2)cc1 [N-({4-[(4,5-difluoro-2-methoxybenzene)sulfonyl]phenyl}methyl)-1H-pyrrolo[3,2-c]pyridine-2-carboxamide] | 14 nM | 6 nM | – | –
Cc1ccc(Cl)c(S(=O)(=O)c2ccc(CNC(=O)c3cc4cnccc4[nH]3)cc2)c1 | 18.8 nM | – | – | 9.1 nM
CCOCc1ccccc1S(=O)(=O)c1ccc(CNC(=O)c2cnc3[nH]ncc3c2)cc1 | – | – | 52 nM | 61.2 nM
O=C(NCc1ccc(S(=O)(=O)c2ccc(Cl)c(C(F)(F)F)c2)cc1)c1cc2ccncc2o1 | – | – | 6 nM | 6.9 nM
O=C(NCc1ccc(S(=O)(=O)c2ccc(Cl)c(F)c2)cc1)c1cnc2nccn2c1 | 1.9 nM | – | – | 8.9 nM
COc1cncc(S(=O)(=O)c2ccc(CNC(=O)c3cnc4nccn4c3)cc2)c1 [N-{[4-(5-methoxypyridine-3-sulfonyl)phenyl]methyl}imidazo[1,2-a]pyrimidine-6-carboxamide] | – | – | 1.6 nM | 25.8 nM
CCOc1ccc(S(=O)(=O)c2ccc(CNC(=O)c3cnc4nccn4c3)cc2)cc1 | 2 nM | – | – | 6.1 nM
Cc1ccc(F)c(S(=O)(=O)c2ccc(CNC(=O)c3cnc4nccn4c3)cc2)c1 | 6.8 nM | – | – | 27.5 nM
O=C(NCc1ccc(S(=O)(=O)c2csc(-c3cccc(F)c3)n2)cc1)c1cc2cnccc2[nH]1 [N-({4-[2-(3-fluorophenyl)-1,3-thiazole-4-sulfonyl]phenyl}methyl)-1H-pyrrolo[3,2-c]pyridine-2-carboxamide] | – | – | 19.2 nM | 23.2 nM
Cc1cc(C)cc(S(=O)(=O)c2ccc(CNC(=O)c3cc4cnccc4[nH]3)cc2)c1 [N-({4-[(3,5-dimethylbenzene)sulfonyl]phenyl}methyl)-1H-pyrrolo[3,2-c]pyridine-2-carboxamide] | 9 nM | 2 nM | – | –
Cc1nc(C)c(S(=O)(=O)c2ccc(CNC(=O)c3cc4ccncc4s3)cc2)s1 [N-{[4-(dimethyl-1,3-thiazole-5-sulfonyl)phenyl]methyl}thieno[2,3-c]pyridine-2-carboxamide] | – | – | 1.3 nM | 3 nM
COc1ccc(S(=O)(=O)c2ccc(CNC(=O)c3cnc4[nH]ncc4c3)cc2)cc1 | 20.9 nM | – | – | 14.3 nM
CCc1cccc(S(=O)(=O)c2ccc(CNC(=O)c3cc4ccncc4s3)cc2)c1 [N-({4-[(3-ethylbenzene)sulfonyl]phenyl}methyl)thieno[2,3-c]pyridine-2-carboxamide] | 6 nM | 2.7 nM | – | –
COc1cc(S(=O)(=O)c2ccc(CNC(=O)c3cnc4nccn4c3)cc2)ccc1C | 1.3 nM | – | – | 1.7 nM
COc1c(F)cccc1S(=O)(=O)c1ccc(CNC(=O)c2cnc3[nH]ncc3c2)cc1 [N-({4-[(3-fluoro-2-methoxybenzene)sulfonyl]phenyl}methyl)-1H-pyrazolo[3,4-b]pyridine-5-carboxamide] | 121 nM | – | – | 100 to 1000 nM
CC(C)COc1cccc(S(=O)(=O)c2ccc(CNC(=O)c3cc4cnccc4[nH]3)cc2)c1 [N-[(4-{[3-(2-methylpropoxy)benzene]sulfonyl}phenyl)methyl]-1H-pyrrolo[3,2-c]pyridine-2-carboxamide] | – | – | 32.2 nM | 14.3 nM
O=C(NCc1ccc(S(=O)(=O)c2ccc(N3CCOCC3)cc2)cc1)c1ccc2nccn2c1 | – | – | 3.5 nM | 0.9 nM
Cc1cc(S(=O)(=O)c2ccc(CNC(=O)c3cc4ccncc4s3)cc2)ccc1F [N-({4-[(4-fluoro-3-methylbenzene)sulfonyl]phenyl}methyl)thieno[2,3-c]pyridine-2-carboxamide] | 7 nM | 2.9 nM | – | –
O=C(NCc1ccc(S(=O)(=O)c2ccc(-n3cccn3)c(F)c2)cc1)c1cnc2[nH]ncc2c1 | – | – | 13.1 nM | 3.3 nM
Cc1ccc(S(=O)(=O)c2ccc(CNC(=O)c3cnc4[nH]ncc4c3)cc2)c(Cl)c1 [N-({4-[(2-chloro-4-methylbenzene)sulfonyl]phenyl}methyl)-1H-pyrazolo[3,4-b]pyridine-5-carboxamide] | 5 nM | – | – | 2.78 nM
Cc1ccc(S(=O)(=O)c2ccc(CNC(=O)c3cc4ccncc4s3)cc2)s1 [N-{[4-(5-methylthiophene-2-sulfonyl)phenyl]methyl}thieno[2,3-c]pyridine-2-carboxamide] | 5 nM | 7.7 nM | – | –
